Experimental data published in patent publication US20210254000A1, “PROCESS FOR PRODUCING A T CELL COMPOSITION” (Juno Therapeutics, Inc., priority 2017, published 2021).

Tests used:
Raji cells [1] = assay: Raji tumor xenograft model, CAR-T cells expanded with inhibitor; format: in vivo, nod scid gamma (NSG) immunodeficient mice; details: for tumor burden (bioluminescence) compared with DMSO vehicle: low (0.25×10^6) or high (1.0×10^6) dose of CAR+ T cells expanded with the inhibitor; for survival compared to mice administered CAR-T cells expanded with DMSO vehicle: low or high dose of CAR-T cells expanded with the inhibitor
Description: Anti-tumor effects of the generated anti-CD19 CAR-T cell compositions, generated by expansion in the presence of PI-103, Compound 63 or media only as described in Example 2, was assessed. The tumor xenograft mouse model was generated by implanting nod scid gamma (NSG) immunodeficient mice with 0.5×10^6 Raji cells (an immortalized human B lymphocyte tumor cell line that expresses CD19), which were allowed to engraft. The Raji cells were transfected with firefly luciferase to facilitate detection by bioluminescence imaging. After seven days, mice either received no treatment, DMSO vehicle, or a low dose (0.25×10^6) or a high dose (1.0×10^6) dose of CAR+ T cells of the generated anti-CD19 CAR-T cell compositions. Tumor burden was assessed by bioluminescence weekly or every 10 days.

Raji cells [2] = assay: Raji tumor xenograft model, CAR-T cells prepared as in Example 7; format: in vivo, nod scid gamma (NSG) immunodeficient mice
Description: Anti-tumor effects of anti-CD19 CAR-T cell compositions prepared in the presence DMSO, PI-103 or Compound 63 as described in Example 7 were assessed in vivo. The tumor xenograft mouse model was generated by implanting nod scid gamma (NSG) immunodeficient mice with 0.5×10^6 Raji cells (an immortalized human B lymphocyte tumor cell line that expresses CD19), which were allowed to engraft. The Raji cells were transfected with firefly luciferase to facilitate measurement of tumor burden by bioluminescence imaging. After seven days, mice either received no treatment, or treatment with a low dose (0.25×10^6) or a high dose (1.0×10^6) of anti-CD19 CAR+ T cells prepared in the presence of DMSO (vehicle) or DMSO and a mTOR kinase inhibitor. Tumor burden and mortality were assessed weekly.

[3] = test system: anti-CD19 CAR-T cells stimulated with irradiated K562-CD19 target cells; assay: Secondary cytokine response after anti-idiotype bead expansion; format: cell-based, human; details: for secondary cytokine production following subsequent stimulation with antigen: cells harvested at day 11 after anti-idiotype bead expansion, K562-CD19 1:1, approximately 16 hours
phospho-S6 = assay: Antigen-dependent CAR signaling (phospho-S6) in expanded CAR-T cells; format: cell-based, human; details: cells expanded with 200 nM PI-103 or 1 μM Compound 63, washed; 20 hours co-culture 1:1
Description: (§1) Separate compositions of CD4+ and CD8+ cells were isolated from three human donors, activated and transduced with a viral vector encoding an anti-CD19 CAR substantially as described in Example 2. After transduction, the CD4+ and CD8+ T cells derived from each donor were separately incubated for 8 days in the presence of a mTOR kinase inhibitor to expand T cells substantially as described in Example 2, except in the presence of 200 nM PI-103, 1 μM Compound 63, or with DMSO vehicle or media only controls. CD4+ and CD8+ T cells from each donor were then separately harvested, formulated, and cryofrozen. The cryofrozen engineered CD4+ and CD8+ T cells were thawed, washed to remove compound, and cells from the same donor were then combined at a ratio of 1:1 viable CD4+/CAR+ to viable CD8+/CAR+ T cells to produce an expanded anti-CD19 CAR-T cell composition containing CD4+ and CD8+ T cells. Functional activities of the generated anti-CD19 CAR-T cell compositions were assessed.
Antigen-dependent signaling of CAR-T cells among generated anti-CD19 CAR-T cell compositions was assessed by monitoring activation of phospho-S6. […] After 20 hours, cells were assessed, for intracellular S6 phosphorylation and co-stained for surface expression of CD4 or CD8, by flow cytometry.

CD4+ and/or CD8+ T cells = assay: RNA-Seq gene expression of CAR-T cells expanded with inhibitor; format: cell-based, human; details: FDR≤10%
Description: Gene expression among cells of the generated anti-CD19 CAR-T cell compositions described in Example 2, generated by expanding the cells in the presence of PI-103, Compound 63, DMSO vehicle, or media only, was assessed by RNA sequencing (RNA-Seq). RNA was extracted from compositions generated from three donors under each expansion condition and an assessment of the whole-transcriptome was performed by RNA-Seq. FPKM and FPKQ values were determined; FPKQ values were log-transformed (log 2). Gene expression was determined by comparing expression profiles of CD4+, CD8+ or combined CD4+/CD8+ cells among cells of the generated anti-CD19 CAR-T cell compositions that were expanded in the presence of media only, PI-103, or Compound 63, as compared to cells expanded with DMSO vehicle. Gene products were identified that were different among each groups based on analysis of a volcano plot by imposing cutoff of FDR≤10% between the two conditions.

[4] = test system: CD8+ and CD4+ T cells of anti-CD19 CAR-T cell compositions; assay: Intracellular polyfunctional cytokine profiles; format: cell-based, human; details: cells expanded with 200 nM PI-103 or 1 μM Compound 63; PMA/Ionomycin + Golgi Inhibitor or Golgi Inhibitor alone, 5 hours
Description: as §1
Intracellular cytokines, CD107a, IFN-gamma ([…]), IL-2, IL-17a, and TNF-alpha (TNFα), were assessed in co-cultured T cells that were split into two groups and further incubated for 5 hours with PMA/Ionomycin and a Golgi Inhibitor or a Golgi Inhibitor alone. The intracellular cytokine accumulation was expressed as a fold change in frequency of cytokine positive cells from media-only controls. […]

Structure (SMILES)	tumor burden (bioluminescence) compared with DMSO vehicle (Raji cells [1])	survival compared to mice administered CAR-T cells expanded with DMSO vehicle (Raji cells [1])	anti-tumor effects compared to cells produced in the absence of inhibitor (DMSO vehicle) (Raji cells [2]; CAR-T cells generated from another donor)	secondary cytokine production following subsequent stimulation with antigen [3]	phospho-S6 staining after antigen stimulation vs DMSO vehicle or media only (phospho-S6)	gene expression (RNA-Seq) compared to cells expanded with DMSO vehicle (CD4+ and/or CD8+ T cells)	frequency of polyfunctional cytokine profiles in CD8+ and CD4+ T cells vs control cells [4]	survival (Raji cells [1]; high dose of CAR-T cells expanded with the inhibitor, for at least 80 days following tumor cell implant)	in vivo anti-tumor responses compared to absence of inhibitor (DMSO vehicle) (Raji cells [2]; low (0.25×10^6) or high (1.0×10^6) dose of CAR+ T cells prepared with the inhibitor)	frequency of CD8+ T cells that were CD107a+IFNγ+ ([3]; some donor-derived cells, day 11, Golgi Inhibitor 4 hours)
Oc1cccc(-c2nc(N3CCOCC3)c3oc4ncccc4c3n2)c1 [PI-103, reference compound]	Reduced tumor burden	substantially improved survival	comparable anti-tumor effects	improved secondary cytokine production	similar	significantly changed gene expression	increased frequency of certain polyfunctional cytokine profiles	–	–	–
CC(C)c1ccccc1-n1c(=O)[nH]c2c(C(N)=O)nc(-c3cccc(O)c3)nc21 [Compound 63, 2-(3-Hydroxyphenyl)-9-(2-isopropylphenyl)-8-oxo-8,9-dihydro-7H-purine-6-carboxamide]	Reduced tumor burden	substantially improved survival	–	improved secondary cytokine production	similar	significantly changed gene expression	increased frequency of certain polyfunctional cytokine profiles	100%	improvement in vivo anti-tumor responses	increased frequency of CD8+ T cells that were CD107a+IFNγ+ cells
